# According to a melting point compilation (Tetko et al.; mined from patent text by program, amines drawn as free bases though some values may be those of a salt):
row,Structure (SMILES),melting point
1,COc1cc(C2=CCCc3ccccc32)c(Cl)cc1C(=O)N1Cc2cccn2Cc2ccccc21,209 to 210 °C
2,CCOC(=O)C(=CNc1coc2ccccc2c1=O)C(=O)OCC,155 to 157 °C
3,CC(C)CCCC(C)NC(=O)Oc1ccc2oc3ccccc3c2c1 (stereo not drawn),114 to 115 °C
4,CC[C@@H](c1ccccc1)N(Cc1ccc(C(=O)O)cn1)S(=O)(=O)c1ccc(Cl)cc1,112 to 113 °C
5,COc1ccc(C(=O)c2cc(Br)ccc2N)cc1,120 °C
6,COc1cc(Br)c(C(=O)c2ccccc2)cc1OC,71 to 72 °C
7,CCc1nnc2ccc(-c3ccccc3)nn12,133 to 135 °C
8,COc1cc2c(c3c1OC(C)(C)C3)C(c1cccc(-c3ccc(NC(=O)C(F)(F)F)cc3)c1)=NC(C)(C)C2,149 to 154 °C
9,NC(=O)NCCC[C@H](NCC(O)C(O)C(O)C(O)CO)C(=O)O (stereo partly drawn),176 °C
10,CC(C)Sc1ccc(NC(=O)C2(C)CC2)cc1C(F)(F)F,103 to 105 °C
11,CC(O)c1ccc(NS(C)(=O)=O)c(Sc2ccc(F)cc2F)c1 (stereo not drawn),118 to 120 °C
12,COc1nc(NCS(=O)(=O)c2ccc(C)cc2)nc(N(C)C)n1,188 to 190 °C
13,Cc1nccn1-c1cc2[nH]c(=O)c(=O)n(O)c2cc1C(F)(F)F,> 300 °C
14,COc1c(CC#N)c2c(c3c1OC(C)(C)C3)C(c1cccc(C(=O)NC3CCCCNC3=O)c1)=NC(C)(C)C2 (stereo not drawn),130 to 132 °C
15,O=[N+]([O-])c1ccc2c(c1)C(Cl)=NC(CF)(CF)O2,75 to 77 °C
16,O=c1[nH]c2ccccc2c2nc(-c3ccco3)nn12,338 to 343 °C
17,O=C(NCCc1c(Cl)cccc1Cl)c1c(Cl)ccc2nc(N3CCC(C(=O)O)CC3)ccc12,262 to 264 °C
18,CCC(CC)(CCCS(N)(=O)=O)COc1nn2ccnc2cc1C,139 to 140 °C
19,COC(=O)c1cnc(Cl)c(OC)c1,83 to 85 °C
20,N#Cc1ccc2oc(-c3cccc(O)c3)cc2c1,222 to 224 °C
21,N#Cc1ccc(C(=CC(=O)N2CCCCC2)n2ccnc2)cc1,160 to 165 °C
22,COc1cc(CCCC2OC(=O)NC2=O)ccc1OCc1csc(CCc2ccccc2)n1 (stereo not drawn),136 to 137 °C
23,COc1cc(I)c(C=O)cc1OC(C)C,75 to 76 °C
24,CSCc1nc(C)cc(O)n1,138 °C
25,C=C(C)OC(=O)N1C(=O)[C@H](C)Nc2nc(Cl)ccc21,86 to 87 °C

row,Structure (SMILES),melting point
1,CCOCCOc1cccc(-c2ccc3c(c2)C=C(C(=O)Nc2ccc(CN(C)C4CCOCC4)cc2)CCS3(=O)=O)c1,180 to 182 °C
2,COc1ccc(COCc2nc(C(C)C)c(Sc3cc(Cl)cc(Cl)c3)n2CC(F)(F)F)cc1,134 to 136 °C
3,COC1CSC2=C(SC1)C(OC(=O)N1CCN(C(=O)C(C)C)CC1)N(c1ccc3ccc(Cl)nc3n1)C2=O (stereo not drawn),232 °C
4,COc1ccc(CN(C(=O)Nc2ccc(C(=O)O)cc2)c2ccc3c(c2)C(C)(C)CCC3(C)C)cc1,117 to 121 °C
5,NC(=O)NCc1ccc2c(c1)OCO2,183 to 184 °C
6,CCOC(=O)/C=C/c1cnn(C)c1-c1cccs1,73 to 74 °C
7,CN1CCC(Oc2cccc(Cn3cnc4cc(-c5ccc(Cl)cc5)sc4c3=O)n2)CC1,202 to 203 °C
8,Cc1ccc(-c2cn(C)cc(-c3cccc(C(F)(F)F)c3)c2=O)c(C)c1,128 to 131 °C
9,O=C(Nc1ccc(Br)cc1)Oc1ccc2c(c1)CCCN2,198 °C
10,Cc1ccc(C(=O)Nc2ccccc2)cc1NC(=O)c1cc(Cl)cc(Cl)c1,202 to 205 °C
11,Cn1c(C(F)(F)F)cc(=O)n(-c2ccc3snc(C(=O)NS(N)(=O)=O)c3c2)c1=O,221 °C
12,CC12CCC(C1)C1(C)Oc3ccc(C(=O)COc4ccc(C(=O)O)cc4)cc3C21C (stereo not drawn),188 °C
13,CCOC(=O)c1c(Nc2ccncc2)c2ccc(Cl)cc2n1CC(=O)N(CC)CC,212 to 214 °C
14,COCOc1ccc2c(c1)OC(C)(C)CC2=O,77 to 79 °C
15,CCCNC(=O)c1nc(-c2ccccc2)c(-c2ccc(=O)[nH]n2)s1,232 to 233 °C
16,O=C(O)c1cc2c(s1)C1CCC2C1 (stereo not drawn),183 to 184 °C
17,Cc1cc(-c2ccccc2)n2nc(SCc3ccccc3)nc2n1,110 to 111 °C
18,COC(=O)[C@@H]1O[C@@H](c2ccccc2)N(NS(=O)(=O)c2c3ccccc3cc3ccccc23)[C@H]1c1ccccc1,71 to 73 °C
19,CS(=O)(=O)OCc1cn(-c2ccc(N3CCOCC3)c(F)c2)nn1,158 °C
20,CC(C)(C)OC(=O)C[C@H](NS(=O)(=O)c1ccc2ccccc2c1)C(=O)O,141 °C
21,CCCN1CC(c2cccc(Br)c2)=C(c2ccc(S(N)(=O)=O)cc2)C1=O,162 to 163 °C
22,O=S1(=O)N=CN(C2CC2)c2c1ccc(Br)c2F,244 to 247 °C
23,CCOC(=O)N1CCN(c2nc(=O)c3cccnc3s2)CC1,139 to 140 °C
24,Nc1nc(Cl)nc2c1ncn2C1OC(CO)C(O)C1F (stereo not drawn),225 to 226 °C
25,Cc1c(NC(=O)CC(C)(C)C)c(C)c2c(c1-c1ccccn1)OCC2c1ccc(C(C)C)cc1 (stereo not drawn),198 to 200 °C

row,Structure (SMILES),melting point
1,COc1cccc(-c2cncc(OC3SCC(OC(C)=O)C(OC(C)=O)C3OC(C)=O)c2)c1 (stereo not drawn),112 to 115 °C
2,Brc1ccccc1-n1cnc2cnc3ccc(-c4ccccc4)cc3c21,128 to 129 °C
3,CS(=O)(=O)CCCCC(Cc1ccccc1)S(=O)(=O)c1ccc(Cl)cc1 (stereo not drawn),68 to 70 °C
4,CC(C)Cn1c(=O)n(C)c(=O)c2c(SCCCO)n(Cc3cccc4ccccc34)nc21,135 °C
5,O=C(O)c1ccc(C(=O)O)c(-c2nc3ccccc3s2)c1,287 to 288 °C
6,CC1(C)CC(O)CC(C)(C)N1N=Nc1ccccc1Br,81 °C
7,Cc1cccc(N(c2ccccc2)c2ccc3c(c2)C(CCCO)(CCCO)c2cc(N(c4ccccc4)c4cccc(C)c4)ccc2-3)c1,216 to 217 °C
8,CC1(C)OCC(C)(C)c2cc(OS(C)(=O)=O)ccc2O1,65 to 67 °C
9,Cc1c[nH]c2ccc(C#N)cc12,110 to 112 °C
10,Cn1c2ccccc2c(=O)n2nc(C(N)=O)cc12,327 to 330 °C
11,CC(=O)OCC1(COC(C)=O)CC1(Br)Cn1cc(C)c(=O)[nH]c1=O (stereo not drawn),197 to 198 °C
12,CC(C)(C)c1ccc(S(=O)(=O)Nc2ccc(-c3cn(C4CCCC4)c4ncnc(N)c34)cc2O)cc1,278 to 280 °C
13,O=C1NCC(CCOC(=O)c2ccccc2)(c2ccc(F)c(F)c2)O1 (stereo not drawn),147 °C
14,N#CC1(c2ccccc2)CCN(c2ccn(CC3CC3)c(=O)c2Cl)CC1,174 °C
15,CC(C)S(=O)(=O)NC(=O)Nc1ccc(Cl)c(Cl)c1,151 to 154 °C
16,COc1c(-c2cc3c(s2)CCC/C3=N\OCc2ccccn2)ccc2c(=O)c(C(=O)O)cn(C3CC3)c12,178 to 179 °C
17,Cc1cc(OCC(=O)O)c2c(c1C)-c1nc(SCCC(c3ccccc3)c3ccccc3)sc1C2,142 to 144 °C
18,O=S(=O)(Cc1ccc(Cl)cc1)Cc1ccc(Cl)cc1,94 to 95 °C
19,O=C(OCCOc1ccccc1)c1cccc(NC(=O)C(CS)Cc2ccccc2)c1 (stereo not drawn),98 to 100 °C
20,Cc1nc(-c2cc(Cl)ccc2Cl)n2c1nnc1ccc(-c3cc(Cl)ccc3Cl)cc12,190 to 193 °C
21,CCCCc1ncc(/C=C(\Cc2cccs2)C(=O)O)n1Cc1cccc(OC)c1[N+](=O)[O-],213 to 215 °C
22,CC(n1cncn1)C(O)(Cn1cncn1)c1ccc(F)cc1 (stereo not drawn),103 to 106 °C
23,O=S(=O)(Cl)c1ccc2scnc2c1,110 to 112 °C
24,NC(CN1CCC(=C2c3ccccc3C=Cc3ccccc32)CC1)C(=O)NCC(=O)O (stereo not drawn),175 to 176 °C
25,CC(=O)c1sc(-c2ccncc2)c(C)c1-c1ccncc1,117 to 118 °C

row,Structure (SMILES),melting point
1,Clc1cc(C#Cc2nccs2)c2oc(Cc3ccccc3Cl)nc2c1,149 to 151 °C
2,CC(C)Nc1cccnc1N1CCN(C(=O)c2ccc(C(=O)N[C@H](CO)C(C)C)cc2)CC1,82 to 83 °C
3,N=C(N)c1ccc(-n2cnn(-c3ccc(CCC(=O)O)cc3)c2=O)cc1,313 to 316 °C
4,Cc1oc(-c2ccccc2)nc1COc1ccc(Cn2cc(CCC(=O)O)c(Oc3ccc(C(F)(F)F)cn3)n2)cc1,107 to 108 °C
5,O=[N+]([O-])c1ccc(Oc2ccc(-n3cncn3)cc2)cc1,131 to 132 °C
6,CC(=O)N(O)C(C)c1ccc2c(c1)oc1ccccc12 (stereo not drawn),132 to 135 °C
7,O=C(Nc1ccc(Oc2ccnc(NC3(CO)CCCC3)n2)c2ccccc12)c1cc(F)cc(N2CCOCC2)c1,115 to 117 °C
8,Nc1ncnc2c1ncn2[C@@H]1C=C[C@H](CO)C1,121 to 124 °C
9,CCCN(CC(=O)Nc1cnc(C)nc1N(CC)CC)c1ccccc1,96.6 to 98.1 °C
10,Cc1cnc(N)c(Br)n1,51 to 52 °C
11,CC1(C)CC(NC(=O)c2cc([N+](=O)[O-])cc([N+](=O)[O-])c2)CC(C)(C)N1,220 to 222 °C
12,Cc1c(CNC2CCCC2)[nH]c2c(C)c(NC(=O)c3ccc(OC[C@@H]4CCCO4)cc3)ccc12,107 to 109 °C
13,Oc1ccc(-c2ccc3ccccc3c2)nc1,168 to 169 °C
14,CC(C)c1cc(-c2cc(C(=O)Cl)ccc2S(C)(=O)=O)on1,102 to 105 °C
15,N#Cc1c(-c2ccc(OCc3ccccc3)cc2)n(Cc2ccc(OCCCl)cc2)c2cccc(OCc3ccccc3)c12,160 to 162 °C
16,CNC1(c2ccccc2)CC=C(c2[nH]c3ccccc3c2CCc2ccncc2)CC1 (stereo not drawn),168 to 172 °C
17,Cc1c(S(=O)(=O)c2ccc(=O)[nH]n2)oc2ccc(Cl)cc12,247 to 248 °C
18,CC(=O)Nc1nc(-c2ccc([N+](=O)[O-])cc2)c[nH]1,242 to 244 °C
19,CC(=O)c1ccc(Nc2ccccc2C(C)=C(Cl)Cl)cc1,81 to 82 °C
20,Cc1oc2ccc(N)cc2c(=O)c1C,202 to 204 °C
21,CC(=O)c1c(C)[nH]c(C(C)CCC(C)c2[nH]c(C)c(C(C)=O)c2C)c1C (stereo not drawn),263 to 268 °C
22,O=S(=O)(NCC1CCN(C[C@H]2COc3ccc4[nH]ccc4c3O2)CC1)c1ccccn1,86 to 88 °C
23,CCN(C)c1nc2sc3c(NCc4ccccn4)ncnc3c2c2c1CCC(C)(C)C2,152 °C
